# Laboratory results published in patent US12590100B2, “Tetrahydro-spiroindoline-pyrrolopyrrole-triones inhibitors of the NRF2-β-TrCP interaction for use in the treatment of fatty liver disease” (Universidad Autonoma De Madrid, priority 2021, dated 2026).
# Entries after “also recorded” stand apart in the source; their conditions may differ.
# Tests used:
# NRF2-regulated genes = assay: mRNA of NRF2-regulated genes in MEFs (qRT-PCR); assay type: cell-based, mouse; conditions: PHAR 10 μM, 8 h
# Protocol: FIG. 4. PHAR activates the NRF2 pathway. MEFs in serum-depleted conditions were subjected to (A-C) 1 μM, 3 μM, or 10 μM of PHAR and 10 μM of SFN as a positive control for 16 h; or (D-F) 10 μM of PHAR for the indicated times. In both experiments, 0.1% DMSO was used as a vehicle. A), representative immunoblots of NRF2, HO1, KEAP1, LAMINB, and GAPDH as loading controls. B) and C), densitometric analysis of NRF2 and HO1 protein levels of the representative immunoblots depicted in (A), expressed as a ratio of NRF2/LAMINB or HO1/GAPDH. The data is depicted as means±SEM (n=3). Statistical analysis was performed with one-way ANOVA followed by the Bonferroni test to check inter-group differences. *p<0.05; ***p<0.001 vs. 0. D), representative immunoblots of NRF2, HO1, KEAP1, LAMINB, and GAPDH as loading controls. E) and F), Densitometric analysis of NRF2 and HO1 protein levels of the representative immunoblots of (D), expressed as a ratio of NRF2/LAMINB or HO1/GAPDH. The data is depicted as means±SEM (n=3). Statistical analysis was performed with one-way ANOVA followed by the Bonferroni test to check inter-group differences. *p<0.05; ***p<0.001 vs. 0. […] Luciferase activity was measured after 16 h of treatment. […] The mRNA levels of Hmox1, Nqo1, Aox1, Glc, and Gclm after 8 h of treatment were determined by means of pRT-PCR and normalized by means of average LaminB, Gapdh, and β-actin. […]
# [1] = system: C57BL/6 mice treated with LPS; assay: Inflammatory response in LPS-treated mice; assay type: in vivo, mouse
# Protocol: FIG. 11. PHAR reduces the inflammatory response in LPS-treated mice. The mice were divided into 4 experimental groups (n=4). Experimental groups 1 and 3 were treated by IP route with vehicle (Tween-80+PBS, 1:13) and experimental groups 2 and 4 with 50 mg/kg of PHAR for 5 days. After the second-to-last administration of the compound, groups 3 and 4 were treated by IP route with 1 mg/kg of LPS for 24 h. Two hours after the last dose of PHAR and twenty-four hours after the administration of LPS, all the mice were sacrificed by extracting the liver protein and total RNA, A), representative immunoblots showing NRF2, HO1, and GAPDH protein levels as the liver extract loading control. B), densitometric analysis of NRF2 and HO1 protein levels of the representative immunoblots shown in (A), expressed as a ratio of NRF2/GAPDH or HO1/GAPDH. The data is depicted as means±SEM (n=4). Statistical analysis was performed with one-way ANOVA followed by the Bonferroni test to compare inter-group differences. **p<0.01; ***p<0.001 vs. vehicle. C), the mRNA levels of Il1β, Il6, and Tnfα were determined by means of qRT-PCR and normalized by means of average Gapdh, Tbp, and β-actin. The data is depicted as mean±SEM (n=4). Statistical analysis was performed with one-way ANOVA followed by the Bonferroni test to check inter-group differences. ***p<0.001 vs. LPS. D) Representative images of hematoxylin and eosin (H&E) staining of mouse liver and immunohistochemical F4/80 staining of inflammatory liver macrophages (Kupffer cells).
# To that end, 16 wild-type C57BL/6 mice were divided into 4 experimental groups: vehicle (experimental group 1), PHAR (experimental group 2), LPS (3), and LPS+PHAR (4). After obtaining results as promising as those described in detail in Example 1.6, the inventors decided to carry out the same experimental protocol. Briefly, the mice were treated daily by IP route with 50 mg/kg of PHAR (experimental groups 2 and 4) or vehicle (groups 1 and 3). Two hours after the second-to-last administration, experimental groups 3 and 4 were treated by IP route with […] of LPS. Lastly, the last dose of PHAR was administered on the last day and 24 h after the administration of LPS, all the mice were sacrificed by extracting the liver protein and total RNA.
# [2] = mice, IP 50 mg/kg PHAR daily for 5 days
smiles,measurement,setting,value
O=C1[C@@H]2[C@H](Cc3c[nH]c4ccccc34)N[C@]3(C(=O)Nc4ccc(Cl)cc43)[C@@H]2C(=O)N1c1ccc2c(c1)OCCO2 [PHAR],"transcripts of Hmox1, Nqo1, Aox1, Gclc, Gclm",NRF2-regulated genes,increase in the corresponding transcripts was observed in all the cases
same,"inflammatory activation of hepatic macrophages (Kupffer cells), F4/80 immunostaining",[1]; LPS+PHAR-treated versus LPS-treated mice,reduction in F4/80 staining; also recorded: greatly attenuated
same,"liver mRNA of pro-inflammatory cytokines (Il1β, Il6, Tnfα)","[1]; LPS-treated mice, prior IP 50 mg/kg PHAR",significant reduction in the production of said cytokines
same,liver HO-1 levels,[1]; [2],induction mediated by the compound could be clearly seen
same,liver NRF2 levels,[1]; [2],increase in NRF2 levels
same,liver structure (H&E),"[1]; mice, IP 50 mg/kg PHAR for 5 days",remains unaltered
same,liver NRF2 and HO-1 levels with combined treatment PHAR+LPS,"[1]; mice, IP 50 mg/kg PHAR for 5 days plus LPS 24 h",synergistic effect
